The source of these data is patent US10287255B2, “Compounds as histone deacetylase 6 inhibitors and pharmaceutical compositions comprising the same” (CHONG KUN DANG PHARMACEUTICAL CORP., priority 2014, dated 2019).

In one assay the target is T1, human recombinant HDAC1 (Homo sapiens, UniProt Q13547).
T1 construct: purchased Enzo Life Science BML-SE456
The assay is described as follows: HDAC1 enzyme activity inhibition assay (in vitro, fluorimetric). Type of assay: biochemical. The settings on record: human recombinant HDAC1, fluorimetric kit, 30° C. 60 minutes. As to the method:
(§1) In order to examine the HDAC6 selectivity of the compounds of formula 1 of the present invention by HDAC1 and HDAC6 enzymatic activity inhibition assays, an experiment was performed using a conventional substance as a control.
(§2) HDAC enzyme activity was measured using a HDAC Fluorimetric Drug Discovery Kit (BML-AK511, 516, Enzo Life Science). For the HDAC1 enzyme activity test, human recombinant HDAC1 (BML-SE456) was used as an enzyme source, and Fluor de Lys®-“SIRT1 (BNL-KI177) was used as a substrate. A 5-fold dilution of the compound was seeded into a 96-well plate, and then 0.3 μg of the enzyme and 10 μM of the substrate were added to each well of the plate and allowed to react at 30° C. for 60 minutes. Then, Fluor de Lys® Developer II (BML-KI176) was added thereto and allowed to react for 30 minutes, after which the fluorescence value (Ex 360, Em 460) was measured using a multi-plate reader (Flexstation 3, Molecular Device). The HDAC6 enzyme was tested using human recombinant HDAC6 (382180) (Calbiochem) according to the same protocol as the HDAC1 enzyme activity test method. Based on the resulting values, each IC50 value was calculated using GraphPad Prism4.0 program.

For a further assay, the target named is T2, human recombinant HDAC6 (Homo sapiens, UniProt Q9UBN7).
T2 construct: purchased Calbiochem 382180
T2 sequence (Q9UBN7 1-1215): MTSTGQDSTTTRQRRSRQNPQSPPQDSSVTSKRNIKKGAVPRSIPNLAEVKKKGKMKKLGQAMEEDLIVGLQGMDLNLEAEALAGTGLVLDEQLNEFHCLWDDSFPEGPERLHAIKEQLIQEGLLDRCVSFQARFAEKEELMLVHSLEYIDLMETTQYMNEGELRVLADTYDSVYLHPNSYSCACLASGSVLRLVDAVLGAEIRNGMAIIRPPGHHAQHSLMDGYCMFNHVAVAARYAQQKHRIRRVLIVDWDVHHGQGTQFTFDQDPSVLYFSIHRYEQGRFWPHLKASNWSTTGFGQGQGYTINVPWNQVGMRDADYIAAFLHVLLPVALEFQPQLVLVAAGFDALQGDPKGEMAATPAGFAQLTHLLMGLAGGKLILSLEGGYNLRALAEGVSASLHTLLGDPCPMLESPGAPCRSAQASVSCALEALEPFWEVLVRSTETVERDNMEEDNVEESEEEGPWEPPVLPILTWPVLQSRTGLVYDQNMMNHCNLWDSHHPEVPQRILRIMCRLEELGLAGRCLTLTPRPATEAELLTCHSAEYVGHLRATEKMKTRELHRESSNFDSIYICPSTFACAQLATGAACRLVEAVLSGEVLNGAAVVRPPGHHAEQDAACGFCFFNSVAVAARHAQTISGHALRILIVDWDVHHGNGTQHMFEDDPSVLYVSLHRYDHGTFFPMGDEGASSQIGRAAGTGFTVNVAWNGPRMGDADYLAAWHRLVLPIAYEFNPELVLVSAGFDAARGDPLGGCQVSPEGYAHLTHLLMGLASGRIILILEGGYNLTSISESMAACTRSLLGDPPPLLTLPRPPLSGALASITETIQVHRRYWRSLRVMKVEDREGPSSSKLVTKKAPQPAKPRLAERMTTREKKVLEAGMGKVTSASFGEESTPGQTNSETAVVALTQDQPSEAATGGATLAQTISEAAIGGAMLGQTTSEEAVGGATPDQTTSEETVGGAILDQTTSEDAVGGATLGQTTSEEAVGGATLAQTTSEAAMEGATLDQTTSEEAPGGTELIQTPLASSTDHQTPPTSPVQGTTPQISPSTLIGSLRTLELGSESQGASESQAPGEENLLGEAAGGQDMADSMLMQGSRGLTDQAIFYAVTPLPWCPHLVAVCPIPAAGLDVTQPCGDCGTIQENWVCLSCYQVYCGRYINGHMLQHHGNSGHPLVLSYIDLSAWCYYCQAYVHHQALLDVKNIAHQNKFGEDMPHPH
As to the kind of experiment: HDAC6 enzyme activity inhibition assay (in vitro, fluorimetric). As to conditions: for HDAC6 selectivity (fold): HDAC6 selectivity over HDAC1; for IC50: human recombinant HDAC6, fluorimetric kit, same protocol as HDAC1. Type of assay: biochemical. As to the method:
as §1, §2

Each structure is given as a SMILES string. Bounds are passed on as bounds.

T1 sequence (Q13547 whole entry): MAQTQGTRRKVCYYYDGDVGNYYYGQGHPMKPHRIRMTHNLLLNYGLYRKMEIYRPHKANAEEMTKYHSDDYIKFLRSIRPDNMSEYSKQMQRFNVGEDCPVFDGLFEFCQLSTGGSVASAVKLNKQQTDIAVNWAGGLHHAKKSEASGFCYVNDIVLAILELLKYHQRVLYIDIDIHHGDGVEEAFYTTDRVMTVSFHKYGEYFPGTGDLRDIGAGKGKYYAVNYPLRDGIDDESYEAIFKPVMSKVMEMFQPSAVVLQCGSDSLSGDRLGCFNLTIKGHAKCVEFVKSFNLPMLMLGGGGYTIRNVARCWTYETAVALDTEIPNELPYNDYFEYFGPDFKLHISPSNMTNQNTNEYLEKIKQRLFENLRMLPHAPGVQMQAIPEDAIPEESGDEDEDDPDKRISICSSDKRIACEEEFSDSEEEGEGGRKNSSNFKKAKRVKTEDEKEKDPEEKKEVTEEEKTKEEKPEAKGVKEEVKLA

In general, IC50 refers to the concentration that gives 50% inhibition. For the molecule `COc1ccccc1NC(=O)N1C[C@@H](C)N(Cc2ccc(C(=O)NO)cc2)[C@@H](C)C1` [Compound 163, (3R,5S)-4-(4-(hydroxycarbamoyl)benzyl)-N-(2-methoxyphenyl)-3,5-dimethylpiperazine-1-carboxamide], the 50% inhibitory concentration (IC50) at human recombinant HDAC1 was determined as 1.1 µM. For the same molecule, at human recombinant HDAC6, the “HDAC6 selectivity (fold)” value is 2 fold and the IC50 is 0.497 µM.

On to `C[C@@H]1CN(Cc2ccc(C(=O)NO)cc2)C[C@H](C)N1Cc1cccc(CN2CCN(S(C)(=O)=O)CC2)c1` [Compound 452, 4-(((3R,5S)-3,5-dimethyl-4-(3-((4-(methylsulfonyl)piperazin-1-yl)methyl)benzyl)piperazin-1-yl)methyl)-N-hydroxybenzamide], for which the IC50 on human recombinant HDAC1 came out at 9.1 µM. Besides, at human recombinant HDAC6, the “HDAC6 selectivity (fold)” value worked out at 140 fold and the IC50 turned out to be 0.065 µM.

Consider `C[C@@H]1CN(Cc2ccc(C(=O)NO)cc2)C[C@H](C)N1C(=O)c1ccc(CN2CCCCC2)cc1` [Compound 459, 4-(((3R,5S)-3,5-dimethyl-4-(4-(piperidin-1-ylmethyl)benzoyl)piperazin-1-yl)methyl)-N-hydroxybenzamide], for which the IC50 at human recombinant HDAC1 came out at 3.8 µM. Moreover, at human recombinant HDAC6, the “HDAC6 selectivity (fold)” value came to 25 fold and the IC50 was determined as 0.149 µM.

On to `C[C@@H]1CN(Cc2ccc(C(=O)NO)cc2)C[C@H](C)N1Cc1cc(F)c(F)cc1F` [Compound 213, 4-(((3R,5S)-3,5-dimethyl-4-(2,4,5-trifluorobenzyl)piperazin-1-yl)methyl)-N-hydroxybenzamide], for which the IC50 at human recombinant HDAC1 was > 10 µM; at human recombinant HDAC6, 0.349 µM. In addition, the “HDAC6 selectivity (fold)” value at human recombinant HDAC6 is listed as >29 fold.

As for `C[C@@H]1CN(Cc2ccc(C3=CCOCC3)cc2)C[C@H](C)N1Cc1ccc(C(=O)NO)cc1` [Compound 401, 4-(((2S,6R)-4-(4-(3,6-dihydro-2H-pyran-4-yl)benzyl)-2,6-dimethylpiperazin-1-yl)methyl)-N-hydroxybenzamide], the concentration for half-maximal inhibition (IC50) on human recombinant HDAC1 was determined as 2 µM. Moreover, on human recombinant HDAC6, the “HDAC6 selectivity (fold)” value is 7 fold and the IC50 amounted to 0.301 µM.

`CCCCN1[C@H](C)CN(Cc2ccc(C(=O)NO)cc2)C[C@@H]1C` [Compound 275, 4-(((3R,5S)-4-butyl-3,5-dimethylpiperazin-1-yl)methyl)-N-hydroxybenzamide]: on human recombinant HDAC1, the IC50 is > 10 µM. Also, on human recombinant HDAC6, the “HDAC6 selectivity (fold)” value is reported as >21 fold and the IC50 turned out to be 0.475 µM.

As for `C[C@@H]1CN(Cc2ccc(C(=O)NO)cc2)C[C@H](C)N1C(=O)c1cccc(CN2CCN(CC(F)(F)F)CC2)c1` [Compound 443, 4-(((3R,5S)-3,5-dimethyl-4-(3-((4-(2,2,2-trifluoroethyl)piperazin-1-yl)methyl)benzoyl)piperazin-1-yl)methyl)-N-hydroxybenzamide], the figures for the concentration for half-maximal inhibition (IC50) at human recombinant HDAC1 and on human recombinant HDAC6 were 9.6 µM and 0.141 µM, respectively. For the same molecule, the “HDAC6 selectivity (fold)” value at human recombinant HDAC6 was 68 fold.

For the molecule `C[C@@H]1CN(Cc2ccc(C(=O)NO)cc2)C[C@H](C)N1C(=O)c1cccc(CN2CCOCC2)c1` [Compound 439, 4-(((3R,5S)-3,5-dimethyl-4-(3-(morpholinomethyl)benzoyl)piperazin-1-yl)methyl)-N-hydroxybenzamide], the IC50 on human recombinant HDAC1 was 10.9 µM; on human recombinant HDAC6, 0.104 µM. The “HDAC6 selectivity (fold)” value on human recombinant HDAC6 was 105 fold.

On to `CCN1CCN(Cc2cccc(CN3[C@H](C)CN(Cc4ccc(C(=O)NO)cc4)C[C@@H]3C)c2)CC1` [Compound 429, 4-(((3R,5S)-4-(3-((4-ethylpiperazin-1-yl)methyl)benzyl)-3,5-dimethylpiperazin-1-yl)methyl)-N-hydroxybenzamide], for which the IC50 at human recombinant HDAC1 worked out at 4.4 µM. Besides, at human recombinant HDAC6, the “HDAC6 selectivity (fold)” value is on record as 44 fold and the IC50 was 0.1 µM.

In the case of `C[C@@H]1CN(Cc2ccc(C(=O)NO)cc2)C[C@H](C)N1C(=O)c1ccc(Cl)cc1` [Compound 122, 4-(((3R,5S)-4-(4-chlorobenzoyl)-3,5-dimethylpiperazin-1-yl)methyl)-N-hydroxybenzamide], the IC50 at human recombinant HDAC1 turned out to be 3.6 µM; on human recombinant HDAC6, 0.005 µM. In addition, the “HDAC6 selectivity (fold)” value on human recombinant HDAC6 amounted to 717 fold.

On to `C[C@@H]1CN(Cc2ccc(C(=O)NO)cc2F)C[C@H](C)N1Cc1cccc(CN2CCOCC2)c1` [Compound 696, 4-(((3R,5S)-3,5-dimethyl-4-(3-(morpholinomethyl)benzyl)piperazin-1-yl)methyl)-3-fluoro-N-hydroxybenzamide], for which the IC50 on human recombinant HDAC1 was > 10 µM. Besides, at human recombinant HDAC6, the “HDAC6 selectivity (fold)” value is given as >1000 fold and the IC50 was determined as 0.01 µM.

For `C[C@@H]1CN(C(=O)Cc2cccc(Cl)c2)C[C@H](C)N1Cc1ccc(C(=O)NO)cc1` [Compound 233, 4-(((2S,6R)-4-(2-(3-chlorophenyl)acetyl)-2,6-dimethylpiperazin-1-yl)methyl)-N-hydroxybenzamide], the IC50 on human recombinant HDAC1 worked out at 16.9 µM; on human recombinant HDAC6, 1.48 µM. In addition, at human recombinant HDAC6, the “HDAC6 selectivity (fold)” value came out at 11 fold.

For the molecule `COc1cccc(CNC(=O)N2C[C@@H](C)N(Cc3ccc(C(=O)NO)cc3)[C@@H](C)C2)c1` [Compound 230, (3R,5S)-4-(4-(hydroxycarbamoyl)benzyl)-N-(3-methoxybenzyl)-3,5-dimethylpiperazine-1-carboxamide], on human recombinant HDAC1, the IC50 was 2.4 µM. Besides, on human recombinant HDAC6, the “HDAC6 selectivity (fold)” value worked out at 3 fold and the IC50 was 0.687 µM.

On to `CC(C)CCN1CCN(Cc2cccc(CN3[C@H](C)CN(Cc4ccc(C(=O)NO)cc4)C[C@@H]3C)c2)CC1` [Compound 454, N-hydroxy-4-(((3R,5S)-4-(3-((4-isopentylpiperazin-1-yl)methyl)benzyl)-3,5-dimethylpiperazin-1-yl)methyl)benzamide], for which, on human recombinant HDAC6, the IC50 came out at 0.044 µM.

Regarding `C[C@@H]1CN(Cc2ccc(C(=O)NO)cc2)C[C@H](C)N1CCc1ccccc1` [Compound 184, 4-(((3R,5S)-3,5-dimethyl-4-phenethylpiperazin-1-yl)methyl)-N-hydroxybenzamide], at human recombinant HDAC6, the “HDAC6 selectivity (fold)” value was >40 fold and the IC50 was determined as 0.249 µM.

In the case of `C[C@@H]1CN(Cc2ccccc2)C[C@H](C)N1Cc1ccc(CC(=O)NO)cc1` [Compound 176, 2-(4-(((2S,6R)-4-benzyl-2,6-dimethylpiperazin-1-yl)methyl)phenyl)-N-hydroxyacetamide], at human recombinant HDAC6, the “HDAC6 selectivity (fold)” value was >23 fold and the IC50 amounted to 0.429 µM.

Consider `C[C@@H]1CN(Cc2ccc3oc(C(=O)NO)cc3c2)C[C@H](C)N1Cc1ccccc1` [Compound 571, 5-(((3R,5S)-4-benzyl-3,5-dimethylpiperazin-1-yl)methyl)-N-hydroxybenzofuran-2-carboxamide], for which, on human recombinant HDAC6, the “HDAC6 selectivity (fold)” value is given as 48 fold and the IC50 was determined as 0.21 µM.

As for `C[C@@H]1CN(Cc2ccc(C(=O)NO)c(F)c2)C[C@H](C)N1Cc1ccccc1` [Compound 171, 4-(((3R,5S)-4-benzyl-3,5-dimethylpiperazin-1-yl)methyl)-2-fluoro-N-hydroxybenzamide], at human recombinant HDAC6, the “HDAC6 selectivity (fold)” value is listed as >256 fold and the IC50 turned out to be 0.039 µM.

Take `C[C@@H]1CN(Cc2ccc(C(=O)NO)cc2)C[C@H](C)N1Cc1ccccc1C1=CCC(C)(C)CC1` [Compound 331, 4-(((3R,5S)-4-((4′,4′-dimethyl-2′,3′,4′,5′-tetrahydro-[1,1′-biphenyl]-2-yl)methyl)-3,5-dimethylpiperazin-1-yl)methyl)-N-hydroxybenzamide]: at human recombinant HDAC6, the “HDAC6 selectivity (fold)” value worked out at 13 fold and the half-maximal inhibitory concentration (IC50) is 0.731 µM.
